From ChEMBL document CHEMBL4725267, “Design and synthesis of potent inhibitors of bc complex based on natural product neopeltolide” (Bioorg Med Chem Lett, 2020)

Biological target: not listed separately
Experiment: (§1) Inhibition of porcine heart Succinate-cytochrome c reductase complex 2 by measuring decrease in DCIP at 10 uM relative to control
Format: tissue-based, Sus scrofa
Conditions: not given

**Q.** Which IC50 does the source give for `CO/C=C(/C(=O)OC)c1ccccc1Oc1cc(Oc2ccccc2C#N)ncn1` [AZOXYSTROBIN] here?
**A.** 0.7 µM

Organism: Sus scrofa
Experiment: as §1
Format: tissue-based
Conditions: not given

**Q.** Which inhibition does the source give for `CCn1cc(Cl)c2c(COC(=O)c3coc(/C=C\CNC(=O)OC)n3)cccc21` here?
**A.** < 10%

**Q.** For `COC(=O)NC/C=C\c1nc(C(=O)OCc2cccc3c2c(Cl)cn3Cc2ccc(F)cc2)co1`, which inhibition is on record?
**A.** 46%

**Q.** For `COC(=O)NC/C=C\c1nc(C(=O)OCc2cccc3c2c(Cl)cn3Cc2ccc(F)cc2F)co1`, which inhibition is on record?
**A.** 46%

**Q.** Which inhibition does the source give for `COC(=O)NC/C=C\c1nc(C(=O)OCc2cccc3c2c(Cl)cn3Cc2ccccc2C)co1` here?
**A.** 47%

**Q.** Which inhibition does the source give for `COC(=O)NC/C=C\c1nc(C(=O)OCc2cccc3c2c(Cl)cn3Cc2ccccc2Cl)co1` here?
**A.** 31%

**Q.** For `COC(=O)NC/C=C\c1nc(C(=O)OCc2cccc3c2c(Cl)cn3Cc2ccc(C)cc2)co1`, which inhibition is on record?
**A.** 11%

**Q.** With `CCCn1cc(Cl)c2c(COC(=O)c3coc(/C=C\CNC(=O)OC)n3)cccc21` as the compound, how does the inhibition read?
**A.** 24%

**Q.** Which inhibition does the source give for `COC(=O)NC/C=C\c1nc(C(=O)OCc2cccc3c2c(Cl)cn3Cc2cc(C)cc(C)c2)co1` here?
**A.** 27%

**Q.** With `COC(=O)NC/C=C\c1nc(C(=O)OCc2cccc3c2c(Cl)cn3Cc2ccccc2Br)co1` as the compound, how does the inhibition read?
**A.** 33%

**Q.** Which inhibition does the source give for `COC(=O)NC/C=C\c1nc(C(=O)OCc2cccc3c2c(Cl)cn3Cc2ccc(Br)cc2)co1` here?
**A.** 14%

**Q.** Which inhibition does the source give for `COC(=O)NC/C=C\c1nc(C(=O)OCc2cccc3c2c(Cl)cn3Cc2cccc(C)c2)co1` here?
**A.** 49%

**Q.** For `COC(=O)NC/C=C\c1nc(C(=O)OCc2cccc3c2c(Cl)cn3Cc2cccc(Cl)c2)co1`, which inhibition is on record?
**A.** 23%

**Q.** For `COC(=O)NC/C=C\c1nc(C(=O)OCc2cccc3c2c(Cl)cn3Cc2ccc(Cl)cc2)co1`, which inhibition is on record?
**A.** 31%

**Q.** Which inhibition does the source give for `COC(=O)NC/C=C\c1nc(C(=O)OCc2cccc3c2c(Cl)cn3Cc2ccccc2F)co1` here?
**A.** 50%

**Q.** With `COC(=O)NC/C=C\c1nc(C(=O)OCc2cccc3[nH]cc(Cl)c23)co1` as the compound, how does the inhibition read?
**A.** 12%

**Q.** Which inhibition does the source give for `C#CCn1cc(Cl)c2c(COC(=O)c3coc(/C=C\CNC(=O)OC)n3)cccc21` here?
**A.** 25%

**Q.** Which inhibition does the source give for `COC(=O)NC/C=C\c1nc(C(=O)OCc2cccc3c2c(Cl)cn3Cc2cccc(Br)c2)co1` here?
**A.** 34%

**Q.** For `COC(=O)NC/C=C\c1nc(C(=O)OCc2cccc3c2c(Cl)cn3Cc2ccccc2)co1`, which inhibition is on record?
**A.** 41%

**Q.** Which inhibition does the source give for `COC(=O)NC/C=C\c1nc(C(=O)OCc2cccc3c2c(Cl)cn3C)co1` here?
**A.** < 10%

**Q.** With `C=CCn1cc(Cl)c2c(COC(=O)c3coc(/C=C\CNC(=O)OC)n3)cccc21` as the compound, how does the inhibition read?
**A.** 21%

**Q.** For `COC(=O)NC/C=C\c1nc(C(=O)OCc2cccc3c2c(Cl)cn3Cc2cccc(F)c2)co1`, which inhibition is on record?
**A.** 32%

Organism: Sus scrofa
Experiment: Inhibition of porcine heart Succinate-cytochrome c reductase complex 2 by measuring decrease in DCIP at 1 uM relative to control
Format: tissue-based
Conditions: dose 10.0 µM

**Q.** Which inhibition does the source give for `COC(=O)NC/C=C\c1nc(C(=O)Nc2cccc3c2ccn3Cc2ccccc2C)co1` here?
**A.** 65%

**Q.** Which inhibition does the source give for `COC(=O)NC/C=C\c1nc(C(=O)Nc2cccc3c2ccn3Cc2ccc(C)cc2)co1` here?
**A.** 55%

Biological target: not listed separately
Experiment: Inhibition of porcine heart Succinate-cytochrome c reductase complex 2 by measuring decrease in DCIP
Format: tissue-based, Sus scrofa
Conditions: not given

**Q.** Which IC50 does the source give for `COC(=O)NC/C=C\c1nc(C(=O)Nc2cccc3c2ccn3Cc2cccc(C)c2)co1` here?
**A.** 0.7 µM

**Q.** Which IC50 does the source give for `COC(=O)NC/C=C\c1nc(C(=O)Nc2cccc3c2ccn3Cc2ccc(F)cc2)co1` here?
**A.** 1.46 µM

**Q.** For `COC(=O)NC/C=C\c1nc(C(=O)Nc2cccc3c2ccn3Cc2ccccc2F)co1`, which IC50 is on record?
**A.** 1.34 µM

**Q.** With `COC(=O)NC/C=C\c1nc(C(=O)Nc2cccc3c2ccn3Cc2cccc(F)c2)co1` as the compound, how does the IC50 read?
**A.** 1.75 µM

System: not listed separately
Experiment: Inhibition of bovine heart mitochondrial cytochrome bc1 complex
Format: mitochondria, Bos taurus, Mitochondria
Conditions: not given

**Q.** Which IC50 does the source give for `CCC[C@H]1C[C@@H](OC)C[C@H](C)C[C@@H]2C[C@@H](OC(=O)/C=C\CCc3coc(/C=C\CNC(=O)OC)n3)C[C@H](CC(=O)O1)O2` here?
**A.** 0.002 µM
